Experimental data published in patent EP0445948A2, “Prostaglandins for inhibiting cartilage damage” (G.D. Searle & Co., priority 1990, dated 1991).

Tests used:
Type in all cases: cell-based
articular cartilage = assay: Pig articular cartilage organ culture: incorporation of 3H-leucine into protein (index of cell viability); details: 0IL1 + Miso. 200ng/ml; (SEM)
Experimental: (§1) A standard organ culture method was followed. Pieces of articular cartilage (4x1x1 mm) are cultured in DMEM and 5% fetal calf serum in an atmosphere of 5% CO₂ at 30°C. The culture medium was renewed every two days in an attempt to maintain the level of the compound undergoing evaluation. Integrity of the cartilage was determined by the retention of GAG using methylene blue dye technique, results were expressed as percentage remaining in the tissue at the end of the experiment. The synthetic activity of the chondrocytes was measured by the incorporation of^ 35SO₄ into GAG. In some of the evaluations incorporation of 3H-leucine into protein was measured as an index of cell viability.
(§2) Human recombinant IL1 alpha at a concentration of 1 ng/ml (nanograms/milliliter). At this concentration it was responsible for 68% loss in GAG content over the 8 day period whereas the control with either misoprostol vehicle or misoprostol at 200 ng/ml only lost between 4 and 7%. The cartilage was incubated in the presence of IL1 and misoprostol at 50, 100 and 200 ng/ml. […] At 100 ng/ml the GAG loss is reduced to 34 percent.

[1] = tested on: human articular cartilage; assay: Effect of misoprostol on IL1-induced inhibition of GAG synthesis (35SO4 incorporation after CPC precipitation); details: for 35SO4 uptake into GAG: 4 days, (SEM)
Experimental: The effect of misoprostol on the action of IL1 on human articular cartilage. This experiment was undertaken to determine the action of misoprostol on IL1 action on cartilage. A total of 160 replicates were performed. The study investigated the inhibition of synthesis of GAG by human articular cartilage over the IL1 concentration range 0.01 - 1 ng/ml. Misoprostol was investigated in the range of 0.1 to 100 ng/ml.
Cartilage from a person was used in this experiment. The experimental period was kept to 4 days with the medium being changed every 24 hours. The tissue was pulsed at 4 days with 5 µCi/ml ³⁵SO₄ in the conventional manner and its incorporation in GAG measured after CPC precipitation.

IL1-treated cartilage [2] = assay: Pig articular cartilage organ culture: incorporation of 35SO4 into GAG (synthetic activity of chondrocytes); details: (SEM)
Experimental: as §1, §2

IL1-treated cartilage [3] = assay: Pig articular cartilage organ culture: retention of GAG (methylene blue dye technique)
Experimental: as §1, §2

CCCCC(C)(O)C/C=C/[C@H]1[C@H](O)CC(=O)[C@@H]1CCCCCCC(=O)OC (mixture of isomers) [misoprostol, (+/-) methyl 11α,16-dihydroxy-16-methyl-9-oxoprost-13E-en-1-oate]
Uptake of 3H Leucine (articular cartilage): 70.9 (4.8) cpm/mg
protection against IL1-induced inhibition of GAG synthesis ([1]; 0.01 ng/ml IL1 (50% inhibition level), misoprostol at 10 ng/ml and at 100 ng/ml): significant protection
protection against the action of 0.01 ng/ml hrIL1α ([1]; 0.01 ng/ml hrIL1α, misoprostol 100 ng/ml): complete protection
protection against IL1-induced inhibition of GAG synthesis ([1]; 0.1 ng/ml IL1, misoprostol 100 ng/ml): modest protective activity
protection against IL1-induced inhibition of GAG synthesis ([1]; 0.1 ng/ml IL1, misoprostol below 100 ng/ml): ineffective
35SO4 uptake into GAG ([1]; IL1 conc. 0.01 ng/ml, Misoprostol 0.1 ng/ml): 3086 (306) cpm/mg
35SO4 uptake into GAG ([1]; IL1 conc. 0.01 ng/ml, Misoprostol 1.0 ng/ml): 2919 (244) cpm/mg
35SO4 uptake into GAG ([1]; IL1 conc. 0.1 ng/ml, Misoprostol 0.1 ng/ml): 1113 (119) cpm/mg
35SO4 uptake into GAG ([1]; IL1 conc. 0.1 ng/ml, Misoprostol 1.0 ng/ml): 1062 (71) cpm/mg
35SO4 uptake into GAG ([1]; IL1 conc. 0.1 ng/ml, Misoprostol 10.0 ng/ml): 1102 (165) cpm/mg
35SO4 uptake into GAG ([1]; IL1 conc. 1.0 ng/ml, Misoprostol 0.1 ng/ml): 183 (23) cpm/mg
35SO4 uptake into GAG ([1]; IL1 conc. 1.0 ng/ml, Misoprostol 1.0 ng/ml): 171 (14) cpm/mg
35SO4 uptake into GAG ([1]; IL1 conc. 1.0 ng/ml, Misoprostol 10.0 ng/ml): 219 (28) cpm/mg
35SO4 uptake into GAG ([1]; IL1 conc. 1.0 ng/ml, Misoprostol 100.0 ng/ml): 193 (26) cpm/mg
Uptake of 35 SO4 into GAG (IL1-treated cartilage [2]; 0IL1 + Miso. 200ng/ml): 29.6 (1.2) cpm/mg x 10^3
Uptake of 35 SO4 into GAG (IL1-treated cartilage [2]; IL1 + Miso. 200ng/ml): 6.3 (0.8) cpm/mg x 10^3
% Retention of GAG in tissue (IL1-treated cartilage [3]; 0IL1 + Miso. 200ng/ml, 8 day culture, (SEM)): 95.6 (1.9) %
GAG loss (IL1-treated cartilage [3]; IL1 1 ng/ml + misoprostol 100 ng/ml, 8 days): 34%
inhibition of the IL1 effect (GAG loss) (IL1-treated cartilage [3]; IL1 + misoprostol at 50, 100 and 200 ng/ml): highly significant inhibition
direct effect on intact cartilage (IL1-treated cartilage [3]; misoprostol without IL1): no direct affect
